Test systems include MDA-N; SF-539 CNS; CAKI-1 renal; SK-OV-3 ovarian; NCI-H460 lung; NCI-H522 lung; SF-268 CNS; SNB-19 CNS; HCC-2998 colon.
Test in all cases: NCI-60 cell line screen, 48 h

The values below come from PubChem BioAssay (NCI).

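Compound exposure: 48 hours, 5 concentrations, 96-well plates. Here, GI50 denotes the concentration required for 50% inhibition of growth. TGI: total growth inhibition.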

Regarding `N#Cc1ncn(-c2ccccc2)c1N`, the TGI with MDA-N, in the experiment on SF-539 CNS, with CAKI-1 renal, in the experiment with SK-OV-3 ovarian, with NCI-H460 lung and in the experiment with NCI-H522 lung was above 100 µM each time. Besides, the TGI with SF-268 CNS, with SNB-19 CNS and with HCC-2998 colon was above 100 µM each time.
For `CCOC(=O)C1(Cc2ccccc2)Cc2cc3c(cc2C1)CCC3`, the TGI with MDA-N is above 100 µM; with SF-539 CNS, above 100 µM; in the experiment with CAKI-1 renal, above 100 µM; with SK-OV-3 ovarian it was 90.9 µM; in the experiment with NCI-H460 lung, above 100 µM; with NCI-H522 lung, 96.2 µM. For the same compound, the figures for the TGI in the experiment on SF-268 CNS, with SNB-19 CNS and with HCC-2998 colon were above 100 µM, above 100 µM and 52.8 µM, respectively.
Regarding `CC(=O)OCC1OC(Nc2ccc3nc(C)n(-c4cccc(C)c4)c(=O)c3c2)C(OC(C)=O)C(OC(C)=O)C1OC(C)=O` (stereo unspecified), the TGI in the experiment on MDA-N, in the experiment with CAKI-1 renal, with NCI-H460 lung, in the experiment on NCI-H522 lung, in the experiment with SF-268 CNS and with SNB-19 CNS was above 62.5 µM each time. For the same compound, the TGI in the experiment on HCC-2998 colon was above 62.5 µM.
Regarding `Cc1cc2nc(N3C(=O)/C(=C/c4cccc([N+](=O)[O-])c4)N=C3c3ccccc3)sc2cc1C`, the TGI in the experiment on MDA-N was 34.1 µM; with SF-539 CNS it was above 100 µM; in the experiment on CAKI-1 renal, above 100 µM; with SK-OV-3 ovarian, above 100 µM; in the experiment with NCI-H460 lung, above 100 µM; in the experiment on SF-268 CNS, above 100 µM. For the same compound, the TGI is above 100 µM with SNB-19 CNS and 53.7 µM in the experiment on HCC-2998 colon.
On to `O=S(=O)(c1cc(Cl)ccc1Cl)N1CCN(c2ccc(Cl)c(Cl)c2)CC1`, for which the TGI in the experiment on SF-539 CNS was 53.5 µM; in the experiment on CAKI-1 renal, 45.3 µM; in the experiment on NCI-H522 lung, 56.5 µM; in the experiment with SF-268 CNS, 85.9 µM; in the experiment on SNB-19 CNS, 32.1 µM; in the experiment on HCC-2998 colon it was above 100 µM.
With `COc1cc([C@@H]2c3cc4c(cc3[C@H](OC3OC5COC(C(C)C)OC5C(O)C3O)C3COC(=O)[C@@H]32)OCO4)cc(OC)c1O` (stereo partly specified), the TGI turned out to be 6.48 µM in the experiment with MDA-N; 8.18 µM in the experiment on SF-539 CNS; 19.2 µM with CAKI-1 renal; 39.1 µM in the experiment on SK-OV-3 ovarian; 10.2 µM in the experiment on NCI-H460 lung; 37.1 µM in the experiment with NCI-H522 lung. Moreover, the TGI was found to be 35 µM in the experiment on SF-268 CNS and 30.1 µM in the experiment on SNB-19 CNS.
As to `CC(O)c1c2c(cc3c1CC1(C3)Cc3cc4c(c(C(C)O)c3C1)CCC4)CCC2` (stereo unspecified), the TGI turned out to be 46.4 µM in the experiment with SF-539 CNS, 60.8 µM in the experiment with SK-OV-3 ovarian, 30 µM in the experiment on NCI-H522 lung and 40.2 µM with HCC-2998 colon.
Regarding `Cc1cn(CC2=NCCN2)c(=O)[nH]c1=O`, the TGI with MDA-N, with CAKI-1 renal, in the experiment on SK-OV-3 ovarian, with NCI-H460 lung, in the experiment on NCI-H522 lung and in the experiment on SF-268 CNS was above 100 µM throughout. Also, the TGI in the experiment on SNB-19 CNS and in the experiment with HCC-2998 colon was above 100 µM in each case.
Consider `O=C1NCC2(CCNCC2)N1c1ccccc1`, for which the TGI in the experiment on MDA-N, in the experiment with SF-539 CNS, in the experiment with CAKI-1 renal, in the experiment with NCI-H460 lung, with NCI-H522 lung and in the experiment with SF-268 CNS was above 100 µM throughout. The TGI in the experiment on SNB-19 CNS and in the experiment on HCC-2998 colon was above 100 µM throughout.
Regarding `Cc1ccc(S(=O)(=O)N2CCCSCCSCCCSCC2)cc1`, the TGI with SF-539 CNS, in the experiment with SK-OV-3 ovarian, in the experiment on NCI-H460 lung, in the experiment with NCI-H522 lung, in the experiment on SF-268 CNS and with SNB-19 CNS was above 100 µM each time. Besides, in the experiment with HCC-2998 colon, the TGI is above 100 µM.
Take `COc1ccc(/C=C2\CN(C(=O)CCN3CCC(=NO)CC3)C/C(=C\c3ccc(OC)cc3)C2=O)cc1`: the GI50 in the experiment with SF-539 CNS is 1.71 µM; with CAKI-1 renal, 1.82 µM; with SK-OV-3 ovarian, 2.72 µM; with NCI-H460 lung, 2.63 µM; in the experiment with NCI-H522 lung, 2.17 µM; in the experiment with SF-268 CNS, 2.84 µM. Moreover, the GI50 was 2.58 µM in the experiment on SNB-19 CNS and 1.85 µM in the experiment with HCC-2998 colon. Besides, the TGI in the experiment with SF-539 CNS came to 3.18 µM; in the experiment with CAKI-1 renal, 3.74 µM; in the experiment on SK-OV-3 ovarian, 7 µM; in the experiment with NCI-H460 lung, 6.74 µM; with NCI-H522 lung, 5.5 µM; in the experiment on SNB-19 CNS, 7.55 µM. For the same compound, the TGI in the experiment with HCC-2998 colon worked out at 3.51 µM.
On to `CCOc1cc(/C=N\N(C)C)cc(/C=N\N(C)C)c1O`, for which the TGI in the experiment with MDA-N is above 100 µM; in the experiment with SF-539 CNS, 65.4 µM; with CAKI-1 renal, 46.8 µM; in the experiment with SK-OV-3 ovarian it was above 100 µM; with NCI-H460 lung, above 100 µM; in the experiment with SF-268 CNS it was 61.2 µM. Further, the TGI in the experiment on SNB-19 CNS and in the experiment with HCC-2998 colon was above 100 µM throughout.
For the compound `COCCOCN(C(=O)C1=CCC2(CC1)OCCO2)c1ccccc1I`, the TGI in the experiment with MDA-N, with CAKI-1 renal, in the experiment with SK-OV-3 ovarian, in the experiment on NCI-H460 lung, with SNB-19 CNS and in the experiment with HCC-2998 colon was above 50 µM throughout.
In the case of `Clc1ccccc1/C=C/c1nsc(/C=C/c2ccccc2Cl)n1`, the TGI with MDA-N is above 100 µM; in the experiment on SF-539 CNS, above 100 µM; in the experiment with CAKI-1 renal, above 100 µM; in the experiment with SK-OV-3 ovarian, above 100 µM; in the experiment on NCI-H460 lung it was 46.4 µM; with NCI-H522 lung, above 100 µM. For the same compound, the TGI in the experiment on SF-268 CNS and in the experiment on SNB-19 CNS was above 100 µM in each case.
As for `Cc1nc(-c2ccccc2)c(C)n2c1nc1ccccc12`, the TGI was above 100 µM in the experiment with MDA-N; above 100 µM with SF-539 CNS; above 100 µM in the experiment on CAKI-1 renal; 46.3 µM in the experiment with SK-OV-3 ovarian; 63.3 µM in the experiment with NCI-H460 lung; 98.7 µM with SF-268 CNS. For the same compound, the TGI with SNB-19 CNS was above 100 µM.
On to `CC(CC(=O)CO[C@H]1[C@H](O)[C@@H](O)[C@@H](O)[C@@H]2NC(=O)c3c(cc4c(c3O)OCO4)[C@H]21)OC1OC(CO)C(O)C(O)C1O` (stereo partly specified), for which the TGI is 3.91 µM in the experiment with MDA-N; 1.86 µM with SF-539 CNS; above 100 µM in the experiment on CAKI-1 renal; 3.87 µM in the experiment on SK-OV-3 ovarian; 1.23 µM in the experiment on NCI-H522 lung; 3.81 µM in the experiment with SF-268 CNS. Also, the TGI stood at 7.89 µM in the experiment with SNB-19 CNS and 0.633 µM in the experiment with HCC-2998 colon.
